In paper PMC4707489, “A novel cell-penetrating peptide suppresses breast tumorigenesis by inhibiting β-catenin/LEF-1 signaling” (Scientific Reports, 2016):

What was measured:
[1] = system: β-catenin/TCF4/LEF-1 downstream genes; assay: Q-PCR of 27 candidate genes in MCF-7; assay type: cell-based, human; settings: MCF-7, 100 μmol/l, 48 hr post-transfection, relative to TAT-NLS-BLBD-6m (Fig. 6d)
Description: Total RNA was isolated by Trizol reagent (Invitrogen, Carlsbad, CA, USA) and reverse transcribed to produce cDNA using the Deoxy + HiSpec reverse transcriptase kit (Yeastern, Taipei, Taiwan) according to the manufacturer instructions. Q-PCR was analyzed with SYBR Green Master Mix (Applied Biosystems, Stockholm, Sweden) and subjected to quantitation in an […]. The primers used for PCR are given in Supplementary Table S5 online. The Q-PCR data were normalized to 18S cDNA levels.

ZR-75-30 cells = assay: Cell growth (CCK-8), HER2 positive cell line; assay type: cell-based, human; settings: ZR-75-30, 100 μmol/l, CCK-8 at 48 hr post-transfection (Fig. 6f)
Description: (§3) Cell growth was analyzed using 2-(2-methoxy-4-nitrophenyl)-3-(4-nitroph enyl)-5-(2,4-disulfophenyl)-2H-tetrazolium, monosodium salt, and the Cell Counting Kit-8 (CCK-8, Sigma). […] After culturing for another 48 hr, cell growth was analyzed by CCK-8 and the optical density was detected at 450 nm. The growth ratio was normalized to the cells without treatment.

breast cancer cells = assay: Cell growth in combination with E2, BBP or TAM (CCK-8); assay type: cell-based, human; settings: 48 hr (Fig. 1e)
Description: as §3

MCF-7 cells [2] = assay: Transwell invasion assay; assay type: cell-based, human; settings: MCF-7, 100 μmol/l, 48 hr post-transfection, vs control or TAT-NLS-BLBD-6m (Fig. 3c)
Description: (§1) Transwell chambers of […] pore size were used in the in vitro invasion assay. MCF-7 and MDA-MB-231 cells were seeded onto the upper chamber and incubated with TAT-NLS-BLBD-6 and TAT-NLS-BLBD-6m peptide and 10% fetal bovine serum medium were added to the bottom chamber well. After 24 hr, cells invading the lower chamber were fixed with 4% paraformaldehyde solution and stained with 0.1% crystal violet for 30 min at 37 °C. Three random field images were obtained by microscopy, and the number of invading cells were counted. For the migration assay, MCF-7 and MDA-MB-231 cells were seeded onto 6-well plates. After 24 hr, an artificial wound was created using a 10-μl pipette tip, and the wound was incubated with TAT-NLS-BLBD-6 or TAT-NLS-BLBD-6m for 24 hr at 37 °C. The images of wound healing were captured by microscopy, and the wound healing distances were calculated by Image J (U.S. National Institutes of Health, Bethesda, MD, USA). For the colony formation assay, MCF-7 and MDA-MB-231 cells were seeded into 10-cm dishes with the medium containing TAT-NLS-BLBD-6 or TAT-NLS-BLBD-6m. After 2 weeks, cells were fixed with 4% paraformaldehyde solution and stained with 0.1% crystal violet for 30 min at 37 °C.

MDA-MB-231 cells [3] = assay: Transwell invasion assay; assay type: cell-based, human; settings: MDA-MB-231, 100 μmol/l, 48 hr post-transfection, vs control or TAT-NLS-BLBD-6m (Fig. 3c)
Description: as §1

[4] = system: MCF-7-YFP cells xenograft; assay: Xenograft tumor growth in nude mice; assay type: in vivo, mouse; settings: MCF-7 xenograft, 1 and 10 mg/kg intratumoral once every 2 days for 35 days, n = 5 per group, vs control peptide
Text: (§2) All animal experiments were approved by the Kaohsiung Medical University Institutional Animal Care and Use Committee (IACUC Approval No: 101156) and we accordance with the approved guidelines. Female nude mice (4–5 weeks old) were obtained from the National Laboratory Animal Center (Taipei, Taiwan). Xenograft tumor models were established by subcutaneous injection of 1 × 10^7 MCF-7-YFP or MDA-MB-231-GFP cells into the right flanks of mice. Mice with palpable tumors were randomly divided into three groups with five animals in each group. The mice were treated with control peptide, […], 1 and 10 mg/kg TAT-NLS-BLBD-6 by intratumoral injection once every 2 days for 35 days. The fluorescence density was analyzed by an In Vivo Imaging System (IVIS) (Berthold Technologies, Bad Wildbad, Germany), and the tumor volumes (V) of nude mice were calculated by: V = length × diameter^2 × 0.5. For zebrafish xenotransplantation, zebrafishes (Danio rerio) were maintained at 28 °C in an air incubator, and 1 × 10^4 MCF-7-GFP or MDA-MB-231-GFP cells combined with TAT-NLS-BLBD-6 or control peptide were injected into the zebrafish embryos according to the previously described protocol. The fluorescence density was measured 24 and 28 hr after injection using an epifluorescence microscope.

[5] = system: MDA-MB-231-GFP cells xenograft; assay: Xenograft tumor growth in nude mice; assay type: in vivo, mouse; settings: MDA-MB-231 xenograft, 1 and 10 mg/kg intratumoral once every 2 days for 35 days, n = 5 per group, vs control peptide
Text: as §2

MCF-7 cells [6] = assay: TUNEL apoptosis assay; assay type: cell-based, human; settings: MCF-7, 100 μmol/l, vs control or TAT-NLS-BLBD-6m (Fig. 3b)
Description: MCF-7 and MDA-MB-231 cells were cultured in 35-mm plates with cover slides on the plate bottom and treated with NLS-BLBD-6, TAT-BLBD-6 and TAT-NLS-BLBD-6 peptide for 24 hr. Subsequently, cells were fixed with 4% paraformaldehyde and permeabilized with 0.2% Triton X-100 for 20 min at room temperature. For the immunofluorescence assay, the slides were incubated with primary antibodies, anti-β-catenin (Epitomics) and anti-TAT (Santa Cruz), for 6 hr, and Alexa-488 fluorescence secondary antibodies for 1 hr. DAPI (Sigma, St Louis, MO) was used to stain the nucleus for 1 min at room temperature. For the TUNEL assay, apoptosis was analyzed by the Apo-BrdU-red DNA Fragmentation Assay kit, according to the manufacturer’s protocol (BioVision, Mountain View, CA, USA). For the PLA, the protein–protein interaction assay was analyzed by Duolink® using PLA® Technology, according to the manufacturer’s protocol (Olink Bioscience, Uppsala, Sweden). Briefly, the slides were incubated with primary antibodies, anti-β-catenin (Epitomics) and anti-TAT (Santa Cruz), and secondary antibodies, Duolink PLA Rabbit MINUS and PLA Mouse PLUS proximity probes. Finally, the proximity ligation was performed by the Duolink detection reagent kit (Olink Bioscience). The immunofluorescence image and TUNEL staining was photographed by a microscope (IX-71, Olympus, Tokyo, Japan).

MDA-MB-231 cells [7] = assay: Cell cycle analysis, sub-G1 (propidium iodide, flow cytometry); assay type: cell-based, human; settings: MDA-MB-231, 100 μmol/l peptide, flow cytometry (Fig. 3a)
Description: MCF-7 and MDA-MB-231 cells were plated in 6-well plates for 24 hr, and the medium was replaced with fresh culture medium containing 100 μmol/l peptide. After incubation for 24 hr, the cells were harvested by trypsinization and then fixed with 70% 4 °C ethanol. Intracellular DNA was stained with […] propidium iodide in the dark for 30 min at room temperature, and the percentages of sub-G1 cells were determined by flow cytometry (BD LSRII analyzer; BD Biosciences).

## H-TAT-NLS-ATDEMIPF-NH2 [TAT-NLS-BLBD-6]
[1]
  gene expression of the 27 candidate genes: decreased
HEK293 cells
  cell growth of embryonic kidney cells: did not inhibit the growth
ZR-75-30 cells
  cell growth: inhibits the growth
Breast cancer cells; peptide 100 μmol/l with E2 (1 μM) or BBP (1 μM)
  cell growth, combination with E2 or BBP: blocked the activity of E2 and BBP
Breast cancer cells; peptide 100 μmol/l with TAM (1 μM)
  cell growth, combination with TAM: increased the response of TAM
MCF-7 cells [2]
  invasion: inhibited the mobility
MDA-MB-231 cells [3]
  invasion: inhibited the mobility
[4]
  tumor growth: inhibited tumor growth
[5]
  tumor growth: inhibited tumor growth
MCF-7 cells [6]
  apoptosis (TUNEL, BrdU binding and DNA fragmentation): increased the effect of binding with BrdU and DNA fragmentation
MDA-MB-231 cells [7]
  sub-G1 phase region (pro-apoptotic effect): 43.10%
